Data set [1] concerns the target Voltage-gated inwardly rectifying potassium channel KCNH2 (Homo sapiens, UniProt Q12809). In words: Inhibition of human ERG. It is filed as toxicity.
Data set [2] is described as follows: Unbound volume of distribution at steady state in dog. To be noted: in vivo. It is filed as ADME, Canis lupus familiaris.
A short description of data set [3]: Solubility of compound at pH 2 by HPLC method. Format: physicochemical. The settings on record: buffer.
A short description of data set [4]: Half life in dog. Format: ADME, Canis lupus familiaris. The settings on record: in vivo.
Data set [5] is described as follows: Unbound brain-to-plasma concentration ratio in rat at 5 mg/kg, po after 2 hrs. The settings on record: read-out: K(p,uu,brain). It is filed as ADME, organism-based.
Data set [6] in a line: Protection against PFFs induced alpha-synuclein aggregation in human iPSC derived neurons assessed as reduction in phosphorylated S129 alpha-synuclein level at 1000 nM pretreated for 1 day followed by PFFs stimulation and measured after 14 days by immunocytochemistry analysis. Format: functional, Neuron. Also on record: scale not given: the % may be the effect or the level left. The settings on record: time 15 day.

The target of data set [7] is T1, Nuclear receptor subfamily 1 group I member 2 (Homo sapiens, UniProt O75469).
T1 sequence (O75469 whole entry): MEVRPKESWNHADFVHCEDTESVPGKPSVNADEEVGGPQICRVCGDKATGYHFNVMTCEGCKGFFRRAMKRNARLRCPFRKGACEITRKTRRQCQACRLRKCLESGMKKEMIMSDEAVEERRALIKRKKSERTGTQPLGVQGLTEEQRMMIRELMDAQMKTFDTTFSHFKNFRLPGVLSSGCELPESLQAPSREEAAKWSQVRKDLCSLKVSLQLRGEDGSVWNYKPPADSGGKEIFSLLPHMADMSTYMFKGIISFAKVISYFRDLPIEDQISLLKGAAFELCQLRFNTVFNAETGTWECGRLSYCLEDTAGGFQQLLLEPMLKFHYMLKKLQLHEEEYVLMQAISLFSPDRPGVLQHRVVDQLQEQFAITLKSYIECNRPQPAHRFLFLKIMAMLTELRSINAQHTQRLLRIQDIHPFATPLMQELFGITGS
The data set can be described thus: Activation of PXR (unknown origin).

Data set [8] can be described thus: Intrinsic clearance in rat at 5 to 10 mg/kg, po or 0.05 to 2 mg/kg, iv. Format: ADME, organism-based. The settings on record: in vivo, dose 5-10 mg/kg.
For data set [9], the target named is T2, Muscarinic acetylcholine receptor M5 (Homo sapiens, UniProt P08912).
T2 sequence (P08912 whole entry): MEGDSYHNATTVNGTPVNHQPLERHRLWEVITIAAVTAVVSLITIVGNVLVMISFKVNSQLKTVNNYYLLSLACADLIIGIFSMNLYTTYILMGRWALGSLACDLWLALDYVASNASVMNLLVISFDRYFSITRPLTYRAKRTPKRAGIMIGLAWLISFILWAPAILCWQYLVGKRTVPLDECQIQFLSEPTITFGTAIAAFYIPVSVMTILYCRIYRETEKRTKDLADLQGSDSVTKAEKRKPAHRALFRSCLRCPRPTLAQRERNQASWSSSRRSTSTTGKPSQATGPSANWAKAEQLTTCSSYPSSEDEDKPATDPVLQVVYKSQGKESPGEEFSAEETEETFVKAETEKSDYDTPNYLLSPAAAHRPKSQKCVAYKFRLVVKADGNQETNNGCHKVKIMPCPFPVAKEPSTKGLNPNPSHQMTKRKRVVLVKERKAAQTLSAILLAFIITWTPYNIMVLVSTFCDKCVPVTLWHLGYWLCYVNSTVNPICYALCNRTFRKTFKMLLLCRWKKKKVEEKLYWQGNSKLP
In words: Inhibition of human muscarinic M5 receptor.

A short description of data set [10]: Unbound fraction in rat plasma. Format: ADME, cell-free.
For a further data set, the target named is Cytochrome P450 3A4 (Homo sapiens, UniProt P08684). The data set can be described thus: Inhibition of CYP3A4 (unknown origin). It is filed as ADME.
Sequence of Cytochrome P450 3A4 (P08684 whole entry): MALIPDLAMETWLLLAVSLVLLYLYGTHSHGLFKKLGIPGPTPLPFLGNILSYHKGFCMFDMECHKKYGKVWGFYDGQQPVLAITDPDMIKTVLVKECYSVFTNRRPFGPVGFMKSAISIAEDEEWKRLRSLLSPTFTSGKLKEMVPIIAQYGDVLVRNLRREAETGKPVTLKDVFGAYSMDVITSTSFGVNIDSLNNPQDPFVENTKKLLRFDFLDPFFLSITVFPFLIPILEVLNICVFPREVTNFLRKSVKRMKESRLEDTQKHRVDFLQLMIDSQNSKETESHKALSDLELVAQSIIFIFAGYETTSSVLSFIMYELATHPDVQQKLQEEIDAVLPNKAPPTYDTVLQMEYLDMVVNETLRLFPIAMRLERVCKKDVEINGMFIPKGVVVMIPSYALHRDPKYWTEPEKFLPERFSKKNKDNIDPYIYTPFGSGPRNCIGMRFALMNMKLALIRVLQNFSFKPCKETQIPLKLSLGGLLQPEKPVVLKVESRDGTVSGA
For another data set, the species on record is Homo sapiens. The data set can be described thus: Inhibition of CYP2C9 (unknown origin) relative to control.
The target in a further data set is T3, mouse BCRP (ABCG2) (Mus musculus, UniProt Q7TMS5).
T3 sequence (Q7TMS5 whole entry): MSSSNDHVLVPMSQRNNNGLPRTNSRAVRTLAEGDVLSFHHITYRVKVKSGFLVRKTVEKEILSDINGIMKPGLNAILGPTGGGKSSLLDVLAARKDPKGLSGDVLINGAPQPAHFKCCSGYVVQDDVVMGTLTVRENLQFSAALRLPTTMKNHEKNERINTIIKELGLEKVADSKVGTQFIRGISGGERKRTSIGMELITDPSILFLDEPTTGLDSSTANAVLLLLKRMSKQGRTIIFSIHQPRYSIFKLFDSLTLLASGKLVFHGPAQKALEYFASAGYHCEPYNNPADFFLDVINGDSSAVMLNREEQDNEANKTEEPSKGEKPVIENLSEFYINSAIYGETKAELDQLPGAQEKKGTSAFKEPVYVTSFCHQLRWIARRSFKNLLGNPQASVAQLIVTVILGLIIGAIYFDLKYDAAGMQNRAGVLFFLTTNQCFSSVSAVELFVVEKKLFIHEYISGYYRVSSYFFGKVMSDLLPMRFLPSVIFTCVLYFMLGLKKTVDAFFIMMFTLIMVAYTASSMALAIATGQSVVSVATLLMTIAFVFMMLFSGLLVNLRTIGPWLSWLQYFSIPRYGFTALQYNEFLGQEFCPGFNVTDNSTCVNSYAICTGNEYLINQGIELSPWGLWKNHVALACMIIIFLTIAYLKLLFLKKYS
The data set can be described thus: Substrate activity at mouse BCRP assessed as efflux ratio at 1 uM. It is filed as ADME. To be noted: not told.

Data set [11] can be described thus: Protection against PFFs induced alpha-synuclein aggregation in human iPSC derived neurons assessed as reduction in phosphorylated S129 alpha-synuclein level pretreated for 1 day followed by PFFs stimulation and measured after 14 days by immunocytochemistry analysis. Format: functional, cell-based. To be noted: Neuron.
A short description of data set [12]: Bioavailability in rat at 5 to 10 mg/kg, po or 0.05 to 2 mg/kg, iv. It is filed as ADME, organism-based. The settings on record: in vivo, dose 5-10 mg/kg.
In data set [13] the target is T4, Ceramide glucosyltransferase (Mus musculus) (UniProt O88693).
T4 sequence (whole entry): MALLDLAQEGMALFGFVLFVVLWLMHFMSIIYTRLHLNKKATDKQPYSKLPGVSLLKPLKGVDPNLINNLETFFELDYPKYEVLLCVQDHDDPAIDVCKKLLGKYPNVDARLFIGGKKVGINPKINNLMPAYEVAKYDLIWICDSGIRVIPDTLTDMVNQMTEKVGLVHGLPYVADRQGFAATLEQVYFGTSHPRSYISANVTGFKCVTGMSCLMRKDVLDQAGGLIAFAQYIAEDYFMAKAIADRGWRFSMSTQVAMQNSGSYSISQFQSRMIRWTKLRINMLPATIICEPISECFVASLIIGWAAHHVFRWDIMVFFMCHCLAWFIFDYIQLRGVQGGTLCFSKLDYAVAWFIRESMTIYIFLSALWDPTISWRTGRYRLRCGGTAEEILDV
In words: (§1) In vivo inhibition of GCS in C57 mouse assessed as reduction in brain GlcCer d18:1/18:0 concentration measured after 8 hrs by LC-MS/MS method. Format: functional.

The target of data set [14] is T5, Ceramide glucosyltransferase (Mus musculus, UniProt O88693).
T5 sequence (O88693 whole entry): T4 sequence (whole entry)
The data set is described as §1. It is filed as functional.

Data set [15] has as its target T4, Ceramide glucosyltransferase (Mus musculus). In words: In vivo inhibition of GCS in C57 mouse assessed as reduction in brain GlcCer d18:1/18:0 concentration at 30 to 100 mg/kg, po measured after 8 hrs by LC-MS/MS method. Format: functional, organism-based. To be noted: dose 30-100 mg/kg.

≈ marks a conversion by molar mass, not a printed value. Calls of active or inactive are those of the source. No cut-off for these calls is given here. Where only a bound is given, the exact number is not on record here.

The IC50 is the midpoint of a concentration-inhibition curve. One may read the solubility as the dissolved amount per volume that the medium holds. The half-life is the time in which the quantity being followed falls by half. For orientation: EC50 means the midpoint of the concentration-response curve. For orientation: fraction unbound means the share of the substance not bound to proteins or other matrix. Usually Emax stands for the size of the effect at its maximum, as opposed to the concentration needed. The efflux ratio is the permeability from basolateral to apical divided by that in the opposite direction, in the common usage. A word on the bioavailability: it is dose-corrected exposure relative to a reference, in per cent.

Sequence of Voltage-gated inwardly rectifying potassium channel KCNH2 (Q12809 whole entry): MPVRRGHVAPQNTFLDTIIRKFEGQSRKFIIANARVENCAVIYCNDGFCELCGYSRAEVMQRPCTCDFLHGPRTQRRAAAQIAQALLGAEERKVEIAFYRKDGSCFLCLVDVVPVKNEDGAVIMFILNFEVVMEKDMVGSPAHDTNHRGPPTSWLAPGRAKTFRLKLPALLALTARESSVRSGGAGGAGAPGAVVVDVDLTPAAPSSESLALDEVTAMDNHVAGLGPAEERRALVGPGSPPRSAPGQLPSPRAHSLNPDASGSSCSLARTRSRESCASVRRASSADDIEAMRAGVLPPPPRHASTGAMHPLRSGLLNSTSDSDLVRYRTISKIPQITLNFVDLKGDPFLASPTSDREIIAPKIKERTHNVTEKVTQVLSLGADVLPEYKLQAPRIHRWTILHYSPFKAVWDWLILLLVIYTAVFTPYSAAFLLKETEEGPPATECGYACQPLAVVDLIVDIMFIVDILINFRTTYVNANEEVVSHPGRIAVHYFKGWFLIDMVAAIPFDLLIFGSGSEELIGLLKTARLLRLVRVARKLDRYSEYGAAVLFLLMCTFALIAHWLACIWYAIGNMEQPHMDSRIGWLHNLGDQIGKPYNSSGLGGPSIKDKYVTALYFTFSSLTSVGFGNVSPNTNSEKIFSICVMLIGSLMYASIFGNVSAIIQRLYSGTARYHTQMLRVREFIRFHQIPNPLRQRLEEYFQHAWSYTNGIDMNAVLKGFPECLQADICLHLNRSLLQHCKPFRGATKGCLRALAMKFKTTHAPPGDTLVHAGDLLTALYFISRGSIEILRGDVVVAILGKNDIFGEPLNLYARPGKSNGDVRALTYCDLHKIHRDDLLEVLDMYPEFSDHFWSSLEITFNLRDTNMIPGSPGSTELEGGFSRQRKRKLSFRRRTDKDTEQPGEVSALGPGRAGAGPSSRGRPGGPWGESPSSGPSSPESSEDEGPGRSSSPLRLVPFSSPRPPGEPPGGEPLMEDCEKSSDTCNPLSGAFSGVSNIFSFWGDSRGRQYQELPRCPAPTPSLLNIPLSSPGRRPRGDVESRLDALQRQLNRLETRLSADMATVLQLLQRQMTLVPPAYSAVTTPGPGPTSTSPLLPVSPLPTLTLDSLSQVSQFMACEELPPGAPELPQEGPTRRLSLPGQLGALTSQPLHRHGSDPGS

Take `Cl.O=C(N1CCN2CCC1CC2)n1nc(-n2cc(C(F)(F)F)cn2)c2c1COCC2`: the IC50 in data set [1] was 4.1 µM; in data set [9], 10.2 µM; at Cytochrome P450 3A4, above 50 µM; in data set [11], 0.017 µM. The fVdss in data set [2] came to 49 L/kg. This compound had a solubility in data set [3] of 174 µM. Moreover, the half-life in data set [4] is 8.2 h. For the same compound, the Kp uu at 2 h in data set [5] came to 1.3. Besides, the Activity in data set [6] is listed as 20%. In addition, the EC50 in data set [7] is above 30 µM. In [8], the CL amounted to 55 mL/min/kg. Moreover, in data set [10], the fraction unbound came to 0.08. This compound also registered an Emax in the data set filed under Homo sapiens of 26%. The efflux ratio at 1 µM at mouse BCRP (ABCG2) turned out to be 1.3. The compound further returned a bioavailability in [12] of 95%.
Consider `O=C(N1CCN2CCC1CC2)n1nc(-c2ccc(F)cc2)c2c1COCC2`, for which the IC50 in data set [1] was 2 µM; in [9], 10.2 µM; against Cytochrome P450 3A4, above 50 µM. Besides, the fVdss in data set [2] is 21 L/kg. The same compound gave a solubility in data set [3] of 167 µM (≈ 61.9 µg/mL). The half-life in data set [4] is 2.4 h. For the same compound, the Kp uu at 2 h in data set [5] turned out to be 0.4. In addition, the figures for the EC50 in [7] and in [14] were above 30 µM and 0.32 µM, respectively. This compound also had a CL in data set [8] of 90 mL/min/kg. Further, the Activity result in data set [13] is “Dose-Dependent Effect”. The fEC50 in data set [13] turned out to be 64 nM. This compound also showed a fraction unbound in data set [10] of 0.11. In addition, in the data set filed under Homo sapiens, the Emax came to 17%. Also, the efflux ratio at 1 µM on mouse BCRP (ABCG2) is 1.4. In addition, the outcome in [15] was Active. Moreover, in [12], the bioavailability was 73%.

Source of the values: ChEMBL document CHEMBL5223177, “Pyrazole Ureas as Low Dose, CNS Penetrant Glucosylceramide Synthase Inhibitors for the Treatment of Parkinson's Disease” (ACS Med Chem Lett, 2023).
